# How the values were obtained:
# BXSB mice = tested on: BXSB mice; parameters: method as in PMID 24445960; details: cited from earlier work
# NZB/W F1 mice [1] = test: IFNα-accelerated NZB/W F1 mouse SLE model; assay type: in vivo
# Method: (§1) All protocols and procedures were conducted according to German animal protection law (Tierschutzgesetz) and were approved by the local veterinarian authorities (Regierungspräsidium, Darmstadt, Germany). Ten-week-old female NZB/W F1 mice (Jackson Laboratories, Bar Harbor, ME, USA) were given a single i.v. injection of 1 × 10^8 IU/100 μl of AdV-IFN-α (adenovirus with mmIfna5_v1 insert, Biofocus, CoA.NL.09.160) in saline or left untreated (sham). Drug treatments were either initiated at 2 weeks (early intervention regimen) or 4 weeks (late intervention regimen) post AdV-IFN-α delivery until the end of the experiment (at 10 weeks). […] Serum and urine samples were collected for anti-dsDNA antibodies (by ELISA) and urinary protein creatinine ratio (UPCR) (measured by ADVIA 1800) determination, respectively, on the days indicated. Proteinuria is defined as UPCR >3.
# CD69 on B220+ B cells = test: Ex vivo anti-IgD-induced CD69 up-regulation in the SLE model; parameters: species or system mouse; details: once daily for 2 weeks, 1 h after last dosing
# NZB/W F1 mice [2] = test: Lymphocyte subsets in spleen at end of treatment, accelerated NZB/W F1 SLE model; assay type: in vivo, mouse; details: MMF 300 mg/kg once daily, early intervention
# Method: as §1
smiles,measurement,setting,value
Cc1ccccc1-n1c(Cn2cnc3c(N)ncnc32)nc2cccc(C)c2c1=O [IC87114],Autoantibody production and kidney pathology,BXSB mice,decreases autoantibody production and kidney pathology
"COc1c(C)c2c(c(O)c1C/C=C(\C)CCC(=O)OCCN1CCOCC1)C(=O)OC2 [MMF, mycophenolate mofetil]",Protection against proteinuria,"NZB/W F1 mice [1]; early intervention, MSC2360844 66 mg/kg or MMF 300 mg/kg once daily oral",almost completely protected against proteinuria
same,Serum anti-dsDNA IgG,"NZB/W F1 mice [1]; early treatment, neither statistically significant nor dose-dependent",tendency of serum anti-dsDNA IgG reduction
same,Ex vivo anti-IgD-induced CD69 surface expression on B220+ B cells,CD69 on B220+ B cells,indistinguishable from untreated mice
same,No. of cells (×10^6) (mean ± SD): B220^+CD19^+ (total B cells),NZB/W F1 mice [2],20.65 (±6.54) ×10^6
same,No. of cells (×10^6) (mean ± SD): CD3^+ (total T-cells),NZB/W F1 mice [2],21.05 (±6.83) ×10^6
same,No. of cells (×10^6) (mean ± SD): CD138^+ (plasma cells),NZB/W F1 mice [2],0.43 (±0.28) ×10^6
same,No. of cells (×10^6) (mean ± SD): GL-7^+IgG^− (GC B cells),NZB/W F1 mice [2],0.23 (±0.16) ×10^6
same,No. of cells (×10^6) (mean ± SD): IgG^+ (class-switched B cells),NZB/W F1 mice [2],0.17 (±0.05) ×10^6
same,No. of cells (×10^6) (mean ± SD): Total splenocytes,NZB/W F1 mice [2],46.50 (±25.17) ×10^6
same,No. of cells (×10^6) (mean ± SD): activated CD4^+ T-cells,NZB/W F1 mice [2],5.24 (±2.05) ×10^6
same,No. of cells (×10^6) (mean ± SD): activated CD8^+ T-cells,NZB/W F1 mice [2],0.23 (±0.09) ×10^6

# Source: article PMC4033217, “Characterization of Novel PI3Kδ Inhibitors as Potential Therapeutics for SLE and Lupus Nephritis in Pre-Clinical Studies” (Frontiers in Immunology, 2014)
